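Cells were grown in 96-well plates and exposed to each compound for 48 hours at five concentrations; endpoints were interpolated linearly between bracketing concentrations, or set to the highest concentration if not reached. GI50 = concentration required for 50% inhibition of growth. TGI denotes the concentration required for complete inhibition of growth.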
Tests used:
Assay in all cases: growth of human tumour cells (NCI), 48 h
BT-549 breast = test system: BT-549 breast
RXF-631 renal = test system: RXF-631 renal
DMS 114 small cell lung = test system: DMS 114 small cell lung
DMS 273 small cell lung = test system: DMS 273 small cell lung
M19-MEL melanoma = test system: M19-MEL melanoma
XF 498 CNS = test system: XF 498 CNS
KM20L2 colon = test system: KM20L2 colon
DLD-1 colon = test system: DLD-1 colon
MDA-N = test system: MDA-N

Row | SMILES | GI50 (BT-549 breast) [µM] | TGI (BT-549 breast) [µM] | TGI (DMS 114 small cell lung) [µM] | TGI (DMS 273 small cell lung) [µM] | TGI (M19-MEL melanoma) [µM] | TGI (KM20L2 colon) [µM] | TGI (DLD-1 colon) [µM] | further results
1 | CCCNc1nc2ccccc2c2c1S(=O)(=O)c1ccc(Cl)cc1C2=O | 0.734 | > 50 |  |  |  |  |  | 
2 | CNC(=O)OCC1C2=C(C(=O)C(C)=C(N)C2=O)N2CC3C(N3C)C12OC (stereo not given) |  | > 100 |  |  |  |  |  | 
3 | CCN(CC)CCOc1ccc(C(=O)/C=C\c2ccc(Cl)cc2Cl)cc1 | 5.83 | 18.2 |  |  |  |  |  | 
4 | O=[N+]([O-])c1ccc(Cl)cc1C1SCc2nc3ccccc3n21 (stereo not given) |  |  | > 100 | > 100 | > 100 | > 100 | > 100 | TGI (RXF-631 renal): > 100 µM; TGI (XF 498 CNS): > 100 µM
5 | COc1cc(/C=C/C(=O)c2cccnc2Nc2ccc(F)cc2)cc(OC)c1OC | 2.7 | 6.72 |  |  |  |  |  | 
6 | CC(C)c1cc(OCC(O)CO)cc(C(C)C)c1 (stereo not given) |  |  | > 100 | > 100 | > 100 | > 100 | > 100 | TGI (XF 498 CNS): > 100 µM
7 | Nc1n[nH]c(CCc2nc(N)n[nH]2)n1 |  |  | > 100 | > 100 | > 100 | > 100 | > 100 | TGI (RXF-631 renal): > 100 µM
8 | O=C(Nc1ccc(Cl)c(Cl)c1)OCCN1c2ccccc2Sc2ccccc21 |  | > 10 |  |  |  |  |  | TGI (MDA-N): > 10 µM
9 | O=C(CC1C(=O)Nc2ccccc2S1=O)Nc1ccc(Cl)cc1 (stereo not given) |  |  |  | > 100 |  | > 100 | > 100 | 
10 | COc1cc2c3c(n(CCCN=[N+]=[N-])c(=O)c2cc1OC)-c1ccc(N(C)C)cc1C3=O | > 100 | > 100 |  |  |  |  |  | 
11 | O=C(/C=C1/Nc2ccc([N+](=O)[O-])cc2NC1O)c1cccc([N+](=O)[O-])c1 (stereo not given) |  |  | > 100 | > 100 | > 100 | 96.2 | > 100 | TGI (XF 498 CNS): > 100 µM
12 | CC(C)COC(=O)c1ccc2[nH]c(O)c(C=Nc3ccc(S(N)(=O)=O)cc3)c2c1 | 1.65 | 4 |  |  |  |  |  | 
13 | CC1(C)OC(=O)C=C([O-])O1.CC1(C)OC(=O)C=C([O-])O1.CC[O-].CC[O-].[Ti+4] |  |  | > 100 |  | > 100 | > 100 | > 100 | GI50 (DMS 114 small cell lung): > 100 µM; GI50 (M19-MEL melanoma): > 100 µM; GI50 (KM20L2 colon): > 100 µM; GI50 (DLD-1 colon): > 100 µM
14 | CCn1c2ccccc2c2cc(C(O)c3cccc4ncccc34)ccc21 (stereo not given) | 0.0702 | 15.6 |  |  |  |  |  | 
15 | CC(=O)Oc1ccc(C(c2ccc(OC(C)=O)cc2)c2ccccn2)cc1 | 0.313 |  | > 68.4 | > 100 | > 100 | > 100 | > 100 | TGI (RXF-631 renal): > 100 µM; TGI (XF 498 CNS): > 86.1 µM; TGI (MDA-N): > 100 µM
16 | CCN(CC)CCSCCCNc1c2ccc(Cl)cc2nc2ccc(OC)cc12 | 1.77 | 3.5 |  |  |  |  |  | 
17 | COc1ccc(OC)c(Nc2nc(-c3c(C)nc4sccn34)cs2)c1 | 11 | > 100 |  |  |  |  |  | 
18 | CN(C)C(=S)/N=c1\ss/c(=N\S(=O)(=O)c2ccccc2)n1N(C)C |  |  | 85.9 | > 100 | > 100 | > 100 | > 100 | TGI (RXF-631 renal): > 100 µM
19 | COC(=O)CCC(=O)NC1C2CC3CC(C2)CC1C3 (stereo not given) |  |  | > 100 | > 100 | > 100 | > 100 | > 100 | TGI (RXF-631 renal): > 100 µM; TGI (XF 498 CNS): > 100 µM
20 | COc1ccc(C2=CC(c3ccc(OC)c(OC)c3)c3c(c4ccccc4oc3=O)O2)cc1OC (stereo not given) | 92.6 | > 100 |  |  |  |  |  | 

Row | SMILES | GI50 (BT-549 breast) [µM] | TGI (BT-549 breast) [µM] | TGI (DMS 114 small cell lung) [µM] | TGI (DMS 273 small cell lung) [µM] | TGI (M19-MEL melanoma) [µM] | TGI (KM20L2 colon) [µM] | TGI (DLD-1 colon) [µM] | further results
21 | OCCN1CCN(CC/C=C2\c3ccccc3Sc3ccc(Cl)cc32)CC1 | 7.89 | 22.4 |  |  |  |  |  | 
22 | CC(Br)C(=O)Nc1ccc(C(=O)O)c(O)c1 (stereo not given) |  | > 100 |  |  |  |  |  | TGI (MDA-N): > 100 µM
23 | Cc1cccc(Nc2cnc(N)nc2N)c1 |  |  |  |  |  |  |  | TGI (MDA-N): > 100 µM
24 | CN1C(Cl)=NS(=O)(=O)c2ccccc21 |  | > 100 |  |  |  |  |  | TGI (MDA-N): > 100 µM
25 | O=C(O)CCSC(=O)Nc1ccc(N=Nc2ccccc2)cc1 |  |  | > 100 | > 100 |  | > 100 | > 100 | TGI (RXF-631 renal): > 100 µM; TGI (XF 498 CNS): > 100 µM
26 | O=C1OC(CN2CCOCC2)CN1/N=C/c1ccc([N+](=O)[O-])o1 (stereo not given) |  | > 100 |  |  |  |  |  | 
27 | CCC(=O)N/N=C(\C=C\c1cccc(O)c1)c1sc(Nc2ccc(C)cc2[N+](=O)[O-])nc1C |  |  | > 100 | > 100 | > 100 | > 100 | > 100 | 
28 | O=C(O)C1=C(C(=O)Nc2ccc(NC(=O)C3=C(C(=O)O)C4C=CC3C4)cc2)C2C=CC1C2 |  |  | > 100 | > 100 | > 100 | > 100 | > 100 | TGI (XF 498 CNS): > 100 µM
29 | c1ccc(CNc2nc(Nc3ccccc3)nc3ccccc23)cc1 | 1.9 | 3.97 |  |  |  |  |  | 
30 | CC12Oc3ccc4ccccc4c3CC1Cc1c(ccc3ccccc13)O2 (stereo not given) |  |  | > 100 | 74.9 | > 100 | > 100 | > 100 | 
31 | Cc1cc(OCc2nnc3n2N=C(c2ccc(Cl)cc2Cl)CS3)ccc1Cl | 25.9 | > 100 |  |  |  |  |  | 
32 | Cn1cnc([N+](=O)[O-])c1Sc1ncn[nH]1 | > 100 | > 100 |  |  |  |  |  | 
33 | COc1cc2c(c(OC3OC(CO)C(O)C(O)C3O)c1)C(=O)CC(c1ccc(O)cc1)O2 (stereo not given) |  | > 100 |  |  |  |  |  | TGI (MDA-N): > 100 µM
34 | COC1=C2CC(C)CC(OC)C(O)C(C)/C=C(\C)C(OC(N)=O)C(OC)/C=C\C=C(/C)C(=O)NC(=C(/C=N/N3CCCCC3)C1=O)C2=O (stereo not given) |  |  |  | 27.6 | 19 | 10.1 | 23.4 | TGI (RXF-631 renal): 35.1 µM; TGI (XF 498 CNS): 19.9 µM
35 | O=C1NC(=O)C2C1N(Cc1ccccc1)C(=O)N2Cc1ccccc1 (stereo not given) |  |  | > 100 |  | > 100 | > 100 | > 100 | TGI (RXF-631 renal): > 100 µM; TGI (XF 498 CNS): > 100 µM
36 | COc1ccc2nc(NC(=O)c3cccnc3Nc3cc(OC)c(OC)c(OC)c3)sc2c1 | 11.6 | 28.2 |  |  |  |  |  | 
37 | c1ccc2c(c1)C1=NCCN1c1ccccc1-2 |  |  |  | 4.88 | 11 | 14.2 | 9.02 | TGI (RXF-631 renal): 9.69 µM
38 | CN(C)CCN1C(=O)c2cccc3cccc(c23)C1=O | > 25 | > 25 |  |  |  |  |  | 
39 | Cn1c(=O)c(Oc2ccc(F)cc2F)cc2cnc(NCCS(C)(=O)=O)nc21 | > 25 | > 25 |  |  |  |  |  | 

From PubChem BioAssay (NCI)
